For assay [1], the system named is H. pylori strain 26695. In words: Minimum inhibitory concentration (MIC) on plates, parental strain. The format is cell-based, Helicobacter pylori. The source says: (§1) Minimal Inhibitory Concentration (MIC). To determine the MIC for amoxicillin, suspensions of H. pylori estimated to contain […] bacteria/ml (OD600 nm of 0.1) were serially diluted and grown on plates containing various concentrations of amoxicillin. The MIC was defined as the amoxicillin concentration leading to a decrease of 3 log of CFU/ml as compared to growth without amoxicillin.
(§2) To determine the MIC of different antibiotics, suspensions of H. pylori estimated to contain 10^8 bacteria/ml (OD600 nm of 0.1) were serially diluted and grown on plates containing various concentrations of amoxicillin. The MIC was defined as the minimal concentration leading to a decrease of 3 log of CFU/ml as compared to growth without antibiotic. Minimum bactericidal concentration (MBC) for amoxicillin was done as follow. Bacteria were grown in increasing concentrations of amoxicillin in liquid culture and OD600 nm was monitored. After 18 hours, CFU/ml counts were determined for each amoxicillin concentration. MBC was defined as the concentration leading to a 3 log decrease of CFU/ml as compared as growth without amoxicillin.

Assay [2] concerns H. pylori 26695 amiA mutant. Description: Minimum inhibitory concentration (MIC) on plates, amiA mutant. In kind it is cell-based, Helicobacter pylori.
Description: as §1, §2

In assay [3] the target is T1, human Nod2 (Homo sapiens, UniProt Q9HC29).
T1 construct: host or cells: HEK293T
T1 sequence (Q9HC29 whole entry): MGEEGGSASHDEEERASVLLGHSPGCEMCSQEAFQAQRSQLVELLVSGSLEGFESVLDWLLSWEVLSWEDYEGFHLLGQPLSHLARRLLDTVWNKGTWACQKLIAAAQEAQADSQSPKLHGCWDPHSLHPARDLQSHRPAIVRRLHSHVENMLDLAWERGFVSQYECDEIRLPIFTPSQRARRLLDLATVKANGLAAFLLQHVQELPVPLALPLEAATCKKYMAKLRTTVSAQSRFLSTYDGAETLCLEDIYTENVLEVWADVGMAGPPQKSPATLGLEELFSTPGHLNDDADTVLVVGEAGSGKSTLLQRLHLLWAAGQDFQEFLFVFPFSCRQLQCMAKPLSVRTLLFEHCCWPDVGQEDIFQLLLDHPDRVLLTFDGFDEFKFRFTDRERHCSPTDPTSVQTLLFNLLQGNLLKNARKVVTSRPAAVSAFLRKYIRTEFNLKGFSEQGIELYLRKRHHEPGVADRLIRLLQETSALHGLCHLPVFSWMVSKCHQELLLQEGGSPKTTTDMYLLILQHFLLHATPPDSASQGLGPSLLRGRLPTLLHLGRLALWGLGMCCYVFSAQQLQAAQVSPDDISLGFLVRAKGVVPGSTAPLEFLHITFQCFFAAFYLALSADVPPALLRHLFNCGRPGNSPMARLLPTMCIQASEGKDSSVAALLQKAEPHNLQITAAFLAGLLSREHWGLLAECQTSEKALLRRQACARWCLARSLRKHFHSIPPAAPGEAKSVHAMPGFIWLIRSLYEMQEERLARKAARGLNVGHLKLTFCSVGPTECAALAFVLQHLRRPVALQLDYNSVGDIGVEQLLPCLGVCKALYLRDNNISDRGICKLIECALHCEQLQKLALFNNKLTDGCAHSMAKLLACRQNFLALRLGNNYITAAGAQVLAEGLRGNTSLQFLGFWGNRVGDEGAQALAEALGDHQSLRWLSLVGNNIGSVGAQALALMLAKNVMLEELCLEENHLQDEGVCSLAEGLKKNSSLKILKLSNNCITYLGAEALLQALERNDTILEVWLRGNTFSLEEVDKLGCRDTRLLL
In words: Nod2-dependent NF-κB luciferase activation in transfected HEK293T cells. The format is cell-based. Conditions: HEK293T cells transfected with hNod2 and luciferase reporter; FIG. 4D. The text has this:
Expression Plasmids, Transient Transfections and NF-κB Activation Assays. The expression plasmid for FLAG-tagged hNod1 was from Gabriel Nuñez (University of Michigan Medical School, Ann Arbor, Mich.) and has been described previously. The expression plasmid for hNod2 was from Gilles Thomas (Foundation Jean Dausset/CEPH, Paris, France). HEK293T cells were used for transfections as described previously. Synergistic activation of NF-κB by PGs, muramyl peptides, and related compounds in cells over-expressing Nod1 or Nod2 was studied as described by Inohara et al.. Briefly, HEK293T cells were transfected overnight with 10 ng of hNod1 or 30 ng of hNod2 plus 75 ng of Ig luciferase reporter plasmid. PG samples (0.1 μg/ml) were digested with 0.25 μg/μl mutanolysin. At the same time, 0.3 μg of PG preparations or 10 pmol of muramyl-peptides were added to the cell culture medium, and synergistic NF-κB-dependent luciferase activation was measured after 24 h of co-incubation. NF-κB-dependent luciferase assays were performed in duplicate, and data reported represent at least three independent experiments. Data was standardized with positive controls: M-dipeptide for hNod2 and M-tripeptide for hNod1. hNod1 and hNod2 were activated with H. pylori PG (0.3 μg/ml) digested with M1 or Slt70 as previously described.

The subject of assay [4] is H. pylori 26695 amiA− complemented. In words: Minimum bactericidal concentration (MBC) in liquid culture, complemented amiA mutant. The format is cell-based, Helicobacter pylori. On the procedure: as §2
Assay [5] deals with H. pylori 26695 amiA mutant. In words: Morphological transition into coccoid forms after amoxicillin (scanning electron microscopy), amiA mutant. The format is cell-based, Helicobacter pylori. On the procedure: (§3) Some stress signals, including amoxicillin treatment, can induce the morphological transition into coccoid forms. The inventors investigated the response of the ami A mutant to amoxicillin. First the inventors determined the MIC of amoxicillin: it was identical for the ami A mutant and the parental strain 26695 (0.06 μg/ml). After overnight culture, 10 μg/ml of amoxicillin was added to the media and after three hours of antibiotic treatment bacteria were observed by scanning electron microscopy. […] Thus, AmiA is required both for PG modifications and morphological transition.
(§4) For scanning electron microscopy (SEM), samples were washed in PBS, prefixed in 2.5% glutaraldehyde in 0.1M cacodylate buffer for 30 minutes and then rinsed in 0.2M cacodylate buffer. After post-fixation in 1% osmium tetraoxide (in 0.2M cacodylate buffer), bacteria were dehydrated in a series of ethanol concentrations. Specimens were critical-point dried using carbon dioxide, then coated with gold and examined with a JEOL JSM-6700F SEM.

For assay [6], the system named is H. pylori strain 26695. Description: Minimum bactericidal concentration (MBC) in liquid culture, parental strain. The format is cell-based, Helicobacter pylori. The protocol: as §2
Assay [7] has as its system H. pylori strain 26695. In words: Morphological transition into coccoid forms after amoxicillin (scanning electron microscopy), parental strain. Conditions: 3-4 h exposure to amoxicillin (10 μg/ml) after 18 h of growth without antibiotic. The format is cell-based, Helicobacter pylori. On the procedure: as §3, §4
The test system of assay [8] is H. pylori 26695 amiA− complemented. Description: Minimum inhibitory concentration (MIC) on plates, complemented amiA mutant. In kind it is cell-based. The settings on record: Helicobacter pylori, read-out: MIC (μg/ml of amoxicillin). On the procedure: as §2
In assay [9] the test system is H. pylori 26695 amiA mutant. Description: Minimum bactericidal concentration (MBC) in liquid culture, amiA mutant. In kind it is cell-based, Helicobacter pylori. Conditions: 18 hours, maximum concentration tested 32 μg/ml. The protocol:
as §2

Setting [10] is: Helicobacter pylori, other antibiotics, read-out: MIC.

Structures are written as SMILES. Values after ≈ are worked out from the molar mass of the structure shown. Where two headings read alike, the source gives them in different places. Positions of bridges follow the written chain, without caps; N, C: chain ends. Non-standard residues stand in square brackets, D forms with d. Residues, ends and D or L forms follow the SMILES beside them. *: point of attachment. Ileψ(thiazoline)Cys = CC[C@H](C)[C@H](N)C1=N[C@H](C(=O)*)CS1; dOrn = NCCC[C@@H](N)C(=O)O

Turning to `CC[C@H](C)[C@H](N)C1=N[C@H](C(=O)N[C@@H](CC(C)C)C(=O)N[C@H](CCC(=O)O)C(=O)N[C@H](C(=O)N[C@H]2CCCCNC(=O)[C@H](CC(N)=O)NC(=O)[C@@H](CC(=O)O)NC(=O)[C@H](Cc3cnc[nH]3)NC(=O)[C@@H](Cc3ccccc3)NC(=O)[C@H]([C@@H](C)CC)NC(=O)[C@@H](CCCN)NC2=O)[C@@H](C)CC)CS1` [Bacitracin] ({Ileψ(thiazoline)Cys}-L[dE]IK[dOrn]I[dF]H[dD]N; lactam 4-C), the MIC in assay [1] (setting [10]) and in [2] (Helicobacter pylori) was greater than 1000 µg/mL in each case.
Take `CC(=O)NC1C(OC2C(CO)OC(O)C(NC(C)=O)C2OC(C)C(=O)NC(C)C(=O)NC(CCC(=O)O)C(=O)O)OC(CO)C(O)C1O` [GM-dipeptide, N-acetyl-D-glucosminyl-β(1,4)-N-acetylmuramyl-L-Ala-D-Glu]: in [3], the “Nod2-dependent activation of NF-κB” value is recorded as “detected via Nod2 in a dose dependent manner”.
As for `Cc1ncc([N+](=O)[O-])n1CCO` [Metronidazole], the MIC in assay [1] (setting [10]) and in assay [2] (Helicobacter pylori) was 1 µg/mL (≈ 5.84 µM) throughout.
For the compound `CCn1cc(C(=O)O)c(=O)c2ccc(C)nc21` [Nalidixic acid], the MIC in assay [1] (setting [10]) and in assay [2] (Helicobacter pylori) was 30 µg/mL (≈ 129 µM) in each case.
Take `[H]/N=C(/N)N[C@H]1[C@H](O)[C@@H](O)[C@H](O[C@@H]2O[C@@H](C)[C@](O)(C=O)[C@H]2O[C@@H]2O[C@@H](CO)[C@H](O)[C@@H](O)[C@@H]2NC)[C@@H](N/C(N)=N\[H])[C@@H]1O` [Streptomycin]: the MIC in [1] (setting [10]) and in assay [2] (Helicobacter pylori) was 1 µg/mL (≈ 1.72 µM) throughout.
For `COc1cc(Cc2cnc(N)nc2N)cc(OC)c1OC` [Trimethroprime], the “MIC” value in [1] (other antibiotics) was greater than 100 µg/mL; in assay [2] (26695 amiA mutant, other antibiotics) it was greater than 100 µg/mL.
As to `CN[C@H](CC(C)C)C(=O)N[C@H]1C(=O)N[C@@H](CC(N)=O)C(=O)N[C@H]2C(=O)N[C@H]3C(=O)N[C@H](C(=O)N[C@H](C(=O)O)c4cc(O)cc(O)c4-c4cc3ccc4O)[C@H](O)c3ccc(c(Cl)c3)Oc3cc2cc(c3O[C@@H]2O[C@H](CO)[C@@H](O)[C@H](O)[C@H]2O[C@H]2C[C@](C)(N)[C@H](O)[C@H](C)O2)Oc2ccc(cc2Cl)[C@H]1O` [Vancomycin], the MIC in assay [1] (setting [10]) and in assay [2] (Helicobacter pylori) was greater than 1000 µg/mL each time.
Regarding `CC1(C)S[C@@H]2[C@H](NC(=O)[C@H](N)c3ccc(O)cc3)C(=O)N2[C@H]1C(=O)O` [amoxicillin], the “Ratio MBC/MIC” value in assay [4] was 2; in [6] it was 1. In addition, the “MCB (μg/ml of amoxicillin)” value in assay [4] (liquid culture, 18 hours) was 0.250 µg/mL; in assay [6] (liquid culture, 18 hours, 3 log decrease of CFU/ml), 0.06 µg/mL; in assay [9], greater than 32 µg/mL. Moreover, the MIC stood at 0.06 µg/mL in assay [1] (Helicobacter pylori, 3 log decrease of CFU/ml, read-out: MIC (μg/ml of amoxicillin)); 0.06 µg/mL in assay [2] (Helicobacter pylori, read-out: MIC (μg/ml of amoxicillin)); 0.125 µg/mL in assay [8]. Moreover, the “Morphology of amiA mutant after amoxicillin” value in assay [5] (10 μg/ml amoxicillin, three hours, after overnight culture, scanning electron microscopy) is recorded as “formed chains of spherical bacteria”. The “% of coccoids (includes U and donut forms)” value in [5] (26695 amiA−, 3-4 h exposure to amoxicillin (10 μg/ml) after 18 h of growth without antibiotic) is 32.60%; in [7], 56.64%. In addition, in assay [5] (exposure to 100 times its MIC), the “Coccoid formation of amiA mutant after amoxicillin” value was “still induced coccoid formation”.

For the origin of these results see patent US20070042448A1, “Use of enzymes from Helicobacter pylori as therapeutical targets” (priority 2005, published 2007).
